Laboratory results: ChEMBL document CHEMBL1201862, “PubChem BioAssay data set” (2004)
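96-well plates; 48 h exposure; 5 concentrations. Endpoints by linear interpolation between flanking doses. Not reached: highest tested concentration assigned. Here, GI50 denotes the concentration required for 50% inhibition of growth.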 Activity calls are given as the source filed them. No stated cut-off is given here; in the data, active = GI50 up to about 1.1 µM and inactive = higher.

Experiments:
Experiment in all cases: growth of human tumour cells (NCI), 48 h
[1] = tested on: SW-620
[2] = tested on: MDA-N
[3] = tested on: M14
[4] = tested on: IGROV-1
[5] = tested on: SK-OV-3
[6] = tested on: OVCAR-3
[7] = tested on: UACC-257
[8] = tested on: SF-268
[9] = tested on: OVCAR-8
[10] = tested on: A549
[11] = tested on: OVCAR-4
[12] = tested on: HCT-15
[13] = tested on: EKVX
[14] = tested on: RPMI-8226
[15] = tested on: NCI-H23
[16] = tested on: A498
[17] = tested on: SF-539
[18] = tested on: CCRF-CEM
[19] = tested on: SK-MEL-2
[20] = tested on: CAKI-1

Structure (SMILES) | GI50 [1] | GI50 [2] | GI50 [3] | GI50 [4] | GI50 [5] | GI50 [6] | GI50 [7] | GI50 [8] | GI50 [9] | GI50 [10] | GI50 [11] | GI50 [12] | GI50 [13] | GI50 [14] | GI50 [15] | GI50 [16] | GI50 [17] | GI50 [18] | GI50 [19] | GI50 [20]
O[C@H]1[C@@H]2OC[C@@H](O)[C@H](OCc3ccccc3)[C@@](COCc3ccccc3)(O2)[C@@H]1OCc1ccccc1 | 18.5 µM (inactive) | 15.4 µM (inactive) | 17.3 µM (inactive) | 13.9 µM (inactive) | 21.6 µM (inactive) | 5.46 µM (inactive) | 14.8 µM (inactive) | 22.2 µM (inactive) | 16.7 µM (inactive) | 17.1 µM (inactive) | 12 µM (inactive) | 16.4 µM | 14.5 µM (inactive) | 10.4 µM (inactive) | 17.1 µM (inactive) | 17.5 µM (inactive) | 15.5 µM (inactive) | 17.4 µM (inactive) | 15.2 µM (inactive) | < 0.01 µM (active)
O=C(/C=C/c1cccs1)c1ccccc1Cl | 14.5 µM (inactive) | 15.6 µM (inactive) | 1.99 µM (inactive) | 17.6 µM (inactive) | 30.7 µM (inactive) | 14.1 µM (inactive) | 17.8 µM (inactive) | 11.4 µM (inactive) | 23.7 µM (inactive) | 0.417 µM (active) | 6.31 µM (inactive) | 10.6 µM | 15.1 µM (inactive) | 16 µM (inactive) | 8.81 µM (inactive) | 10.2 µM (inactive) | 22.4 µM (inactive) | 8.71 µM (inactive) | 20.1 µM (inactive) | 10.6 µM (inactive)
CCCCCC(=O)Nc1[nH]cnc1C(N)=O | > 100 µM (inactive) | > 100 µM (inactive) | > 100 µM (inactive) | > 100 µM (inactive) | > 100 µM (inactive) | > 100 µM (inactive) | > 100 µM (inactive) | > 100 µM (inactive) | > 100 µM (inactive) | > 100 µM (inactive) | > 100 µM (inactive) | > 100 µM | > 100 µM (inactive) | > 100 µM (inactive) | > 100 µM (inactive) | > 100 µM (inactive) | > 100 µM (inactive) | > 100 µM (inactive) | > 100 µM (inactive) | > 100 µM (inactive)
O=C(O)C(Cc1c[nH]c2ccccc12)C(=O)NO (stereo not given) | 95.5 µM (inactive) | > 100 µM (inactive) | > 100 µM (inactive) | > 100 µM (inactive) | > 100 µM (inactive) | 96.8 µM (inactive) | > 100 µM (inactive) | > 100 µM (inactive) | > 100 µM (inactive) | > 100 µM (inactive) | > 100 µM (inactive) | > 100 µM | 14.2 µM (inactive) | > 100 µM (inactive) | > 100 µM (inactive) | > 100 µM (inactive) | > 100 µM (inactive) | 39.8 µM (inactive) | > 100 µM (inactive) | > 100 µM (inactive)
O=c1c2cc(-c3ccccc3)cnc2sn1-c1ccc(Br)cc1 | > 100 µM (inactive) | > 100 µM (inactive) | > 100 µM (inactive) | 58.1 µM (inactive) | > 100 µM (inactive) | 37 µM (inactive) | > 100 µM (inactive) | > 100 µM (inactive) | > 100 µM (inactive) | > 100 µM (inactive) | > 100 µM (inactive) | 88.9 µM | > 100 µM (inactive) | > 100 µM (inactive) | > 100 µM (inactive) | > 100 µM (inactive) | > 100 µM (inactive) | 95.5 µM (inactive) | > 100 µM (inactive) | > 100 µM (inactive)
COC(C)(C)OCCN1CCN(CCN2C3=C(C=C(C(C)=O)C3)Sc3ccccc32)CC1 | 17.5 µM (inactive) | 19 µM (inactive) | 20.3 µM (inactive) | 20 µM (inactive) | 35.8 µM (inactive) | 22.2 µM (inactive) | 20.3 µM (inactive) | 19.6 µM (inactive) | 20.9 µM (inactive) | 32.6 µM (inactive) | 28.6 µM (inactive) | 19.6 µM | 42.1 µM (inactive) | 14.3 µM (inactive) | 27.2 µM (inactive) | 17.6 µM (inactive) | 20.1 µM (inactive) | 15.2 µM (inactive) | 20.2 µM (inactive) | 19.2 µM (inactive)
COc1cccc2c1C(=O)c1c(O)c3c(c(O)c1C2=O)C[C@@](O)(C(=O)CO)C[C@@H]3OC1CC(N(C)C)C(O)C(C)O1 (stereo not given in full) | < 0.01 µM (active) | < 0.01 µM (active) | 0.0306 µM (active) | < 0.0104 µM (active) | 0.0728 µM (active) | 0.0644 µM (active) | 0.0285 µM (active) | < 0.0126 µM (active) | < 0.0255 µM (active) | < 0.01 µM (active) | < 0.0189 µM (active) | 0.0182 µM | 0.0415 µM (active) | < 0.0175 µM (active) | 0.0137 µM (active) | < 0.0116 µM (active) | < 0.01 µM (active) | 0.0991 µM (active) | < 0.0212 µM (active) | < 0.01 µM (active)
